Patent publication US20170056345A1 (priority 2014, published 2017)

Experiments:
[1] = target: mycobacterial urease (Mycobacterium bovis, UniProt A1KJR2); test: cell-based; design: species or system M. bovis BCG
[2] = test system: M. tuberculosis; test: time-kill curve method, bactericidal activity (CFU) on solid media at pH6; type: cell-based; settings: FIG. 2
Protocol: The synergistic effect of AHA in overcoming urea protection of M. tuberculosis and in enhancing the efficacy of PZA is illustrated.
We employed a time-kill curve method to determine the bactericidal activity of PZA and a combination of PZA and acetohydroxamic acid (AHA) against M. tuberculosis. We cultured M. tuberculosis on solid media at pH6. CFU values were determined for samples treated with pyrazinamide (PZA), urea at a typical body fluid concentration and acetohydroxamic acid. […] Consequently, our results provide that AHA acts not only as a PZA booster, but also as an anti-mycobacterial agent, in some instances, in a synergistic manner with the traditional anti-mycobacterial agent used.

mycobacterial urease, sequence (A1KJR2 whole entry, looked up): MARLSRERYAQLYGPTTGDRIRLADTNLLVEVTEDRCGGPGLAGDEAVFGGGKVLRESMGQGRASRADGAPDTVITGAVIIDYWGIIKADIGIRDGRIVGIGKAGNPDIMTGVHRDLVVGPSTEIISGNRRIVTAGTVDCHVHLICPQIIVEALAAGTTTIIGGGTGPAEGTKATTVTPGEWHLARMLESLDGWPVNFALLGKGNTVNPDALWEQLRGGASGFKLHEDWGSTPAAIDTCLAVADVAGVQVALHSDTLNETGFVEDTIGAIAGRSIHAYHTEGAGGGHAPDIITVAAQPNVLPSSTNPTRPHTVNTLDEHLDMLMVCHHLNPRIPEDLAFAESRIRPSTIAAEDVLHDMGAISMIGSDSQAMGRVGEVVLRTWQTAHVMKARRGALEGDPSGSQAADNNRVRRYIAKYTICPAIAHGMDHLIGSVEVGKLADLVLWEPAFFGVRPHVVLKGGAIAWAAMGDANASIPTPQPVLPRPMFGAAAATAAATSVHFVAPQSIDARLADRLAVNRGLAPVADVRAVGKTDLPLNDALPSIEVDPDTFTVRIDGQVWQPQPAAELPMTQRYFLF

Compound | IC50 [1] [µM] | effect on kill rate ([2]; AHA combined with PZA (urea present), solid media pH6) | effect on urea protection against the PZA kill ([2]; AHA with PZA and urea at a typical body fluid concentration, solid media pH6) | kill (bactericidal activity, CFU) ([2]; PZA alone, M. tuberculosis on solid media at pH6)
CC(=O)NO [acetohydroxamic acid] | 100 to 200 | substantially increased the kill rate | prevented urea protection | 
NC(=O)c1cnccn1 [PZA, pyrazinamide] |  |  |  | modest
